What was measured:
cell-cell aggregation = assay: Inhibition of cell-cell aggregation (method of Fritz et al.); type: cell-based
Description: Cell-cell aggregation studies by the method of Fritz et al., J. CeII.

CPT-II [1] = molecular target: T1, CPT-II (Bos taurus, UniProt Q2KJB7); assay: CPT inhibition (spectrophotometric assay, CPT-II prepared from beef liver); type: biochemical; settings: CPT-II from beef liver, 10 μM decanoyl-CoA, L-carnitine 1 mM and 5 mM, pH 7.4, 30° C.
T1 construct: CPT-II was prepared from beef liver; from tissue; host or cells: beef liver
T1 sequence (Q2KJB7 26-658): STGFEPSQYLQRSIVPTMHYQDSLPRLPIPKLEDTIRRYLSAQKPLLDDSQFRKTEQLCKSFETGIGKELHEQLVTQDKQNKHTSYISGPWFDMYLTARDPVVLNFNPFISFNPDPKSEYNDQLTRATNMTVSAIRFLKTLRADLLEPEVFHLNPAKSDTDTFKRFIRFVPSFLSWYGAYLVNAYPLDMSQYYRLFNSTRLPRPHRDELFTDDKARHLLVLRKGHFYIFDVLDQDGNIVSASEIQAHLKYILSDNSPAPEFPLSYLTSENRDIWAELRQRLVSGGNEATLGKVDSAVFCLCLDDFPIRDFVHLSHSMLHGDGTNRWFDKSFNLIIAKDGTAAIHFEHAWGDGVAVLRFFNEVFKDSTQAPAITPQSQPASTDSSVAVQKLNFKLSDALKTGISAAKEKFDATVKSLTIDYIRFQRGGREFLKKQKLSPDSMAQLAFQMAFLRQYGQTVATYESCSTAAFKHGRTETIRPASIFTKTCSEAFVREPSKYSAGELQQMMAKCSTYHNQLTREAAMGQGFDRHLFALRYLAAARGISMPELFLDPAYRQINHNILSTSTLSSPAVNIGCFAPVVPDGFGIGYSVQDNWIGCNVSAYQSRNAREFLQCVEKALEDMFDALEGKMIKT
Experimental: (§1) Preparation: CPT-II was prepared from beef liver using the methods of P. R. H. Clarke and L. L. Bieber (1981) J. Biol. Chem., 256. 9861-9868.
(§2) In final volume of 1 ml, 20 mm KPO4^-, pH 7.4 at 30° C., 125 μM aldrithiol [4,4-dithio(bis)pyridine], 10 μM decanoyl-CoA, 10 μl enzyme (1.25 μg/ml) and inhibitor were preincubated at 30° C. for 1 min. and the reaction was initiated with L-carnitine. The absorbance change at 324 nm, followed in a spectrophotometer, was linear with time. L-carnitine conc. were 1 mM and 5 mM. H15C conc. ranged from 1.25 μM-12.5 μM (6values).

CPT-II [2] = assay: as above; type: biochemical; settings: Ki 2 μM versus 10.4 μM
Experimental: as §1, §2

Row | Ki (CPT-II [1]) | binding strength relative to palmitoylcholine (from Ki against CPT) (CPT-II [2]) | SMILES | Ki (cell-cell aggregation)
1 | – | – | CCCCCCCCCCCCCCCCC1(O)C[N+](C)(C)CCO1 (racemic) [Example 3, 2-Hexadecyl-2-hydroxy-4,4-dimethylmorpholinium Bromide] | 0.4 µM
2 | – | – | CCCCCCCCCCCCCCC1(O)C[N+](C)(C)CCO1 (racemic) [Example 5, 2-Hydroxy-4,4-dimethyl-2,-tetradecylmorpholinium Bromide] | 1.5 µM
3 | – | – | CCCCCCCCCCCCC1(O)C[N+](C)(C)CCO1 (racemic) [Example 7, 2-Dodecyl-2-hydroxy-4,4-dimethylmorpholinium Bromide] | 12 µM
4 | 2 µM | five-fold stronger binding | CCCCCCCCCCCCCCCC1(O)C[N+](C)(C)CCO1.[Br-] (stereo not shown) [Example 4, 2Hydroxy-4,4-dimethyl-2-pentadecylmorpholinium Bromide] | 0.4 µM
5 | – | – | CCCCCCCCCCCCCCCC(=O)C[N+](C)(C)CCCO [Example 9, N-(3-Hydroxypropyl)-N,N-dimethyl-N-(2-oxoheptadecyl)ammonium Bromide] | 0.75 µM

— US5196418A, “Hemicholinium lipids and use thereof” (Board of Supervisors, Louisiana State University …, priority 1992, dated 1993)
